Experimental data: patent US20090305995A1, “AGONISTS AND ANTAGONISTS OF THE SOMATOSTATIN RECEPTOR” (Novartis AG, priority 2004, published 2009)
In brackets after ≈: the same amount, converted by molar mass. Read-outs that look alike come from different tables or passages of the source.

Tests used:
[1] = high throughput solubility (HT-Solubility); assay type: physicochemical; settings: for water solubility (in words): see FIG. 10
[2] = logP octanol by pH-metric titration (GLpKa instrument); assay type: physicochemical; settings: read-out: log P/D logP octanol
Protocol: In order to have a real measure of log P values for highly polar compounds, respective values for compounds 1 to 3 (C-terminal L-β-homothreonine amides) and compounds 7 to 9 (C-terminal 4-amino-5-methyl-dihydro-fuan-2-ones) are measured by employing pH-metric titration technology using a GLpKa instrument (Box et al. 2003). The high polarity of these two mixed α/β^3-tetrapeptides can be controlled by N-terminal introduction of lipophilization tags. The conjugation with fatty acid analogs leads to compounds with druglike polarity (5, 6, 10, 11, 12, 13, 14, 15, 16, 17, 18 and 26).

[3] = high throughput permeability (HT-Permeability, log Pe); assay type: physicochemical; settings: PAMPA, Pe in cm/s
[4] = HT-logP o/w, high throughput assay based on artificial liquid membrane permeability; assay type: physicochemical
Summary of the method: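 Octanol/water partition coefficients measured in a high-throughput format based on permeability across an artificial liquid membrane.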

hsst4 receptor = target: T1, hsst4 receptor (Homo sapiens, UniProt P31391); assay: radioligand-binding displacement assay ([125I]LTT-SRIF28), receptor expressed in CCL39 cells; settings: hsst4; [125I]LTT-SRIF28 displacement
T1 construct: expressed in transfected cells; host or cells: Chinese hamster lung fibroblast (CCL39) cells
T1 sequence (P31391 whole entry): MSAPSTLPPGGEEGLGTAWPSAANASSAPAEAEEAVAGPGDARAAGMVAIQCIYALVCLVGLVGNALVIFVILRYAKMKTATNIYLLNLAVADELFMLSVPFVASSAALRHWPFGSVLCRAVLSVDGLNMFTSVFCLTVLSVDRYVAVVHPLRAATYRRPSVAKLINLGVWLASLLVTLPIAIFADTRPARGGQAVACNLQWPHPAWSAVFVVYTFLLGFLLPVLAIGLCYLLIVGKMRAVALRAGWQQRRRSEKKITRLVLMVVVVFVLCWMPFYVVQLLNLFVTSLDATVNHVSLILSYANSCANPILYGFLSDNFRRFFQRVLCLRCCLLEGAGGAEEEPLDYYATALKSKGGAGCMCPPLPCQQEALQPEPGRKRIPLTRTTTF
Protocol: (§1) The generated peptides are tested for their affinity to bind to human SRIF receptors expressed in Chinese hamster lung fibroblast (CCL39) cells. This is achieved in radioligand-binding assays, a displacement experiment in which the concentration of a substance is measured which is necessary for the replacement of 50% of a specifically bound radioligand ([^125I]LTT-SRIF28). Specific binding is measured as the total binding of receptor-specific radioligand minus the amount of radioligand bound in presence of unmarked SRIF-14 (100 nM, nonspecific binding).

human SRIF receptors = assay: radioligand-binding displacement assay on the human SRIF receptor family (selectivity)
Protocol: as §1

[5] = pH 4, pH 4.0, read-out: HT-Permeability logPe pH 4.0 (converted)
[6] = pH 6.8, pH 6.8, read-out: HT-Permeability logPe pH 6.8 (converted)
[7] = pH 8, pH 8.0, read-out: HT-Permeability logPe pH 8.0 (converted)
[8] = pH 1, pH 1.0, read-out: HT-Solubility pH 1.0
[9] = pH 6.8, pH 6.8, read-out: HT-Solubility pH 6.8
[10] = octanol/water, read-out: HT LogP ohw
[11] = octanol/water; read-out: HT LogP ohw

| SMILES | HT-Solubility pH 1.0 [1] | HT-Solubility pH 6.8 [1] | logP [2] | Papp [3, 5] | Papp [3, 6] | Papp [3, 7] | water solubility (in words) [1] | HT LogP ohw ([4]; octanol/water) | solubility [1, 8] | solubility [1, 9] | Kd (hsst4 receptor) | affinity to the receptors of the SRIF family (in words) (human SRIF receptors) | logP [4, 10] | logP [4, 11] | selectivity amongst other hsst receptors (factor) (human SRIF receptors; hsst4 versus other hsst receptors) |
| --- | --- | --- | --- | --- | --- | --- | --- | --- | --- | --- | --- | --- | --- | --- | --- |
| CN(C(=O)C[C@@H](N)Cc1ccccc1)[C@H](Cc1c[nH]c2ccccc12)C(=O)N[C@@H](CCCCN)CC(N)=O [Compound 72, (S)-β^3-HPhe-(R)—N-Me-Trp-(S)-β^3-HLys-NH2] | 0.1041 g 1-1 | 0.1041 g 1-1 | 1.5 | 5.01 ×10⁻⁶ cm/s | 7.94 ×10⁻⁶ cm/s | 6.31 ×10⁻⁶ cm/s | – | – | – | – | – | – | – | – | – |
| CCCCCN(C)C(=O)C[C@H](CCCCN)NC(=O)[C@@H](Cc1c[nH]c2ccccc12)NC(=O)C[C@H](Cc1ccccc1)NC(=O)CC [Compound 49, Propionyl-(S)-β^3-HPhe-(R)-Trp-(S)-β^3-HLys-methyl-pentyl-amide] | 0.1294 g 1-1 | 0.1294 g 1-1 | 2.8 | – | – | – | highest solubility values | 3.7 | – | – | – | – | – | – | – |
| NCCCC[C@@H](CC(N)=O)NC(=O)[C@@H](Cc1c[nH]c2ccccc12)NC(=O)C[C@@H](N)Cc1ccccc1 [Compound 59, (S)-β^3-HPhe-(R)-Trp-(S)-β^3-HLys-NH2] | – | – | 1 | 1 ×10⁻⁶ cm/s | 3.98 ×10⁻⁶ cm/s | 3.16 ×10⁻⁶ cm/s | – | – | 101 µg/mL (≈ 200 µM) | 50.7 µg/mL (≈ 100 µM) | 1510 nM | only very low affinity | – | – | – |
| CCCCCCN(C)C(=O)C[C@H](CCCCN)NC(=O)[C@@H](Cc1c[nH]c2ccccc12)N(C)C(=O)C[C@H](Cc1ccccc1)NC(=O)CC [Compound 65, Propionyl-(S)-β^3-HPhe-(R)—N-Me-Trp-(S)-β^3-HLys-methyl-hexyl-amide] | – | – | – | 12.6 ×10⁻⁶ cm/s | 2.51 ×10⁻⁶ cm/s | 5.01 ×10⁻⁶ cm/s | highest solubility values | – | 135 µg/mL (≈ 200 µM) | 135 µg/mL (≈ 200 µM) | 57 nM | – | 4.1 | – | – |
| CC(=O)N[C@H](CC(=O)N[C@H](Cc1c[nH]c2ccccc12)C(=O)N[C@@H](CCCCN)CC(=O)N[C@@H]1CC(=O)O[C@@H]1C)Cc1ccccc1 [Compound 8] | – | – | 0.4 | – | – | 2 ×10⁻⁶ cm/s | – | – | – | – | – | – | – | 3.4 | – |
| CCCCCN(C)C(=O)C[C@H](CCCCN)NC(=O)[C@@H](Cc1c[nH]c2ccccc12)N(C)C(=O)C[C@H](Cc1ccccc1)NC(=O)CC [Compound 64] | – | – | 3.1 | – | 6.31 ×10⁻⁶ cm/s | 2 ×10⁻⁶ cm/s | highest solubility values | – | – | – | – | – | – | – | – |
| CC(=O)N[C@H](CC(=O)N[C@H](Cc1cn(C)c2ccccc12)C(=O)N[C@@H](CCCCN)CC(=O)N[C@@H]1CC(=O)O[C@@H]1C)Cc1ccccc1 [Compound 21, Ac—(S)-β^3-HPhe-(R)-1-Me-Trp-(S)-β^3-HLys-(R)-4-amino-(R)-5-methyl-dihydro-furan-2-one] | – | – | – | 0.1 ×10⁻⁶ cm/s | – | – | – | – | 13.2 µg/mL (≈ 20 µM) | 13.2 µg/mL (≈ 20 µM) | 708 to 2950 nM | – | 3.3 | – | – |
| CCN(CC)C(=O)C[C@@H](NC(=O)C[C@H](CCCCN)NC(=O)[C@@H](Cc1c[nH]c2ccccc12)NC(=O)C[C@H](Cc1ccccc1)NC(C)=O)C(C)C [Compound 22, Ac—(S)-β^3-HPhe-(R)-Trp-(S)-β^3-HLys-(R)-β^3-Leu-diethyl-amide] | – | – | – | 0.1 ×10⁻⁶ cm/s | – | – | – | – | 14.4 µg/mL (≈ 20.1 µM) | 14.4 µg/mL (≈ 20.1 µM) | 166 nM | – | 2.3 | – | – |
| CCCCCN(C)C(=O)C[C@H](CCCCN)NC(=O)[C@@H](Cc1c[nH]c2ccccc12)N(Cc1ccccc1)C(=O)C[C@H](Cc1ccccc1)NC(=O)CC [Compound 67] | – | – | – | – | – | – | does not allow for good water solubilities | – | – | – | – | – | – | 4.4 | 100 |
| CCCCCN(C)C(=O)C[C@H](CCCCN)NC(=O)[C@@H](Cc1c[nH]c2ccccc12)NC(=O)C[C@H](Cc1ccccc1)NC(=O)CC [Compound 48] | – | – | – | 3.16 ×10⁻⁶ cm/s | 1.58 ×10⁻⁶ cm/s | 3.98 ×10⁻⁶ cm/s | highest solubility values | – | 129 µg/mL (≈ 200 µM) | 129 µg/mL (≈ 200 µM) | 7 nM | – | 3.4 | – | – |
| CC(=O)N[C@H](CC(=O)N[C@H](Cc1c[nH]c2ccccc12)C(=O)N[C@@H](CCCCN)CC(=O)N[C@H](CC(N)=O)[C@@H](C)O)Cc1ccccc1 [Compound 3] | 0.0133 g 1-1 | 0.0133 g 1-1 | 0.4 | – | – | – | – | – | – | – | – | – | – | – | – |
